Assays:
Assay in all cases: relative viability (nuclei count vs DMSO), 5 days (fraction); higher = more cells survive
NCI-H1355 = test system: NCI-H1355
Summary of the method: (§1)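 Dosing by pin tool came one day after lung cancer cell lines were seeded in 1536-well plates, using either one drug or a fixed anchor-drug dose plus five library-drug doses (not always all listed) in √10 steps. After 5 days, nuclei were counted on 4× images. Relative viability is treated-well nuclei count divided by vehicle-well nuclei count, and values are medians of duplicate plates.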

NCI-H2009 = test system: NCI-H2009
Summary of the method: as §1

NCI-H1755 = test system: NCI-H1755
Summary of the method: as §1

NCI-H358 = test system: NCI-H358
Summary of the method: as §1

NCI-H647 = test system: NCI-H647
Summary of the method: as §1

NCI-H2228 = test system: NCI-H2228
Summary of the method: as §1

COR-L23 = test system: COR-L23
Summary of the method: as §1

NCI-H1793 = test system: NCI-H1793
Summary of the method: as §1

HOP-62 = test system: HOP-62
Summary of the method: as §1

SK-MES-1 = test system: SK-MES-1
Summary of the method: as §1

HCC-15 = test system: HCC-15
Summary of the method: as §1

COR-L 105 = test system: COR-L 105
Summary of the method: as §1

NCI-H2342 = test system: NCI-H2342
Summary of the method: as §1

NCI-H1993 = test system: NCI-H1993
Summary of the method: as §1

EKVX = test system: EKVX
Summary of the method: as §1

HARA = test system: HARA
Summary of the method: as §1

NCI-H1734 = test system: NCI-H1734
Summary of the method: as §1

NCI-H1395 = test system: NCI-H1395
Summary of the method: as §1

UMC-11 = test system: UMC-11
Summary of the method: as §1

NCI-H2170 = test system: NCI-H2170
Summary of the method: as §1

NCI-H2347 = test system: NCI-H2347
Summary of the method: as §1

PC-14 = test system: PC-14
Summary of the method: as §1

NCI-H838 = test system: NCI-H838
Summary of the method: as §1

Structure (SMILES): O=C(O)c1ccc(-c2c[nH]c3ncc(-c4ccccc4)cc23)cc1C1CCCC1 + N=C(N)NC(=N)NCCc1ccccc1 [Phenformin] (partner 250 µM)
- relative viability (NCI-H1355; first compound 0.04 µM): 0.446
- relative viability (NCI-H1355; first compound 0.1265 µM): 0.462
- relative viability (NCI-H1355; first compound 0.4 µM): 0.453
- relative viability (NCI-H1355; first compound 1.265 µM): 0.276
- relative viability (NCI-H2009; first compound 0.04 µM): 0.519
- relative viability (NCI-H2009; first compound 0.1265 µM): 0.533
- relative viability (NCI-H2009; first compound 0.4 µM): 0.512
- relative viability (NCI-H2009; first compound 1.265 µM): 0.393
- relative viability (NCI-H1755; first compound 0.04 µM): 0.597
- relative viability (NCI-H1755; first compound 0.1265 µM): 0.615
- relative viability (NCI-H1755; first compound 0.4 µM): 0.64
- relative viability (NCI-H1755; first compound 1.265 µM): 0.604
- relative viability (NCI-H358; first compound 0.04 µM): 0.347
- relative viability (NCI-H358; first compound 0.1265 µM): 0.379
- relative viability (NCI-H358; first compound 0.4 µM): 0.292
- relative viability (NCI-H358; first compound 1.265 µM): 0.124
- relative viability (NCI-H647; first compound 0.04 µM): 0.611
- relative viability (NCI-H647; first compound 0.1265 µM): 0.598
- relative viability (NCI-H647; first compound 0.4 µM): 0.478
- relative viability (NCI-H647; first compound 1.265 µM): 0.38
- relative viability (NCI-H2228; first compound 0.04 µM): 0.37
- relative viability (NCI-H2228; first compound 0.1265 µM): 0.344
- relative viability (NCI-H2228; first compound 0.4 µM): 0.349
- relative viability (NCI-H2228; first compound 1.265 µM): 0.245
- relative viability (COR-L23; first compound 0.04 µM): 0.424
- relative viability (COR-L23; first compound 0.1265 µM): 0.507
- relative viability (COR-L23; first compound 0.4 µM): 0.437
- relative viability (COR-L23; first compound 1.265 µM): 0.268
- relative viability (NCI-H1793; first compound 0.04 µM): 0.404
- relative viability (NCI-H1793; first compound 0.1265 µM): 0.494
- relative viability (NCI-H1793; first compound 0.4 µM): 0.374
- relative viability (NCI-H1793; first compound 1.265 µM): 0.365
- relative viability (HOP-62; first compound 0.04 µM): 0.699
- relative viability (HOP-62; first compound 0.1265 µM): 0.669
- relative viability (HOP-62; first compound 0.4 µM): 0.611
- relative viability (HOP-62; first compound 1.265 µM): 0.595
- relative viability (SK-MES-1; first compound 0.04 µM): 0.683
- relative viability (SK-MES-1; first compound 0.1265 µM): 0.687
- relative viability (SK-MES-1; first compound 0.4 µM): 0.637
- relative viability (SK-MES-1; first compound 1.265 µM): 0.447
- relative viability (HCC-15; first compound 0.04 µM): 0.514
- relative viability (HCC-15; first compound 0.1265 µM): 0.617
- relative viability (HCC-15; first compound 0.4 µM): 0.433
- relative viability (HCC-15; first compound 1.265 µM): 0.234
- relative viability (COR-L 105; first compound 0.04 µM): 0.485
- relative viability (COR-L 105; first compound 0.1265 µM): 0.492
- relative viability (COR-L 105; first compound 0.4 µM): 0.489
- relative viability (COR-L 105; first compound 1.265 µM): 0.446
- relative viability (NCI-H2342; first compound 0.04 µM): 0.512
- relative viability (NCI-H2342; first compound 0.1265 µM): 0.693
- relative viability (NCI-H2342; first compound 0.4 µM): 0.623
- relative viability (NCI-H2342; first compound 1.265 µM): 0.491
- relative viability (NCI-H1993; first compound 0.04 µM): 0.574
- relative viability (NCI-H1993; first compound 0.1265 µM): 0.475
- relative viability (NCI-H1993; first compound 0.4 µM): 0.477
- relative viability (NCI-H1993; first compound 1.265 µM): 0.513
- relative viability (EKVX; first compound 0.04 µM): 0.249
- relative viability (EKVX; first compound 0.1265 µM): 0.225
- relative viability (EKVX; first compound 0.4 µM): 0.245
- relative viability (EKVX; first compound 1.265 µM): 0.219
- relative viability (HARA; first compound 0.04 µM): 0.469
- relative viability (HARA; first compound 0.1265 µM): 0.479
- relative viability (HARA; first compound 0.4 µM): 0.459
- relative viability (HARA; first compound 1.265 µM): 0.372
- relative viability (NCI-H1734; first compound 0.04 µM): 0.419
- relative viability (NCI-H1734; first compound 0.1265 µM): 0.452
- relative viability (NCI-H1734; first compound 0.4 µM): 0.371
- relative viability (NCI-H1734; first compound 1.265 µM): 0.358
- relative viability (NCI-H1395; first compound 0.04 µM): 0.452
- relative viability (NCI-H1395; first compound 0.1265 µM): 0.44
- relative viability (NCI-H1395; first compound 0.4 µM): 0.413
- relative viability (NCI-H1395; first compound 1.265 µM): 0.414
- relative viability (UMC-11; first compound 0.04 µM): 0.331
- relative viability (UMC-11; first compound 0.1265 µM): 0.324
- relative viability (UMC-11; first compound 0.4 µM): 0.306
- relative viability (UMC-11; first compound 1.265 µM): 0.265
- relative viability (NCI-H2170; first compound 0.04 µM): 0.434
- relative viability (NCI-H2170; first compound 0.1265 µM): 0.413
- relative viability (NCI-H2170; first compound 0.4 µM): 0.459
- relative viability (NCI-H2170; first compound 1.265 µM): 0.362
- relative viability (NCI-H2347; first compound 0.04 µM): 0.396
- relative viability (NCI-H2347; first compound 0.1265 µM): 0.475
- relative viability (NCI-H2347; first compound 0.4 µM): 0.484
- relative viability (NCI-H2347; first compound 1.265 µM): 0.405
- relative viability (PC-14; first compound 0.04 µM): 0.588
- relative viability (PC-14; first compound 0.1265 µM): 0.678
- relative viability (PC-14; first compound 0.4 µM): 0.548
- relative viability (PC-14; first compound 1.265 µM): 0.604
- relative viability (NCI-H838; first compound 0.04 µM): 0.542
- relative viability (NCI-H838; first compound 0.1265 µM): 0.655
- relative viability (NCI-H838; first compound 0.4 µM): 0.596
- relative viability (NCI-H838; first compound 1.265 µM): 0.511
